The values that follow are results of earlier work, collected in patent publication US20150191797A1, “SYSTEMS AND METHODS FOR DIAGNOSING A PREDISPOSITION TO COLON CANCER” (Institute for Cancer Research d/b/a The Research Institute …, priority 2012, published 2015).

This data set deals with Werner cells. To be noted: camptothecin doses of 20-50 nM.

Take `CC[C@@]1(O)C(=O)OCc2c1cc1n(c2=O)Cc2cc3ccccc3nc2-1` [Camptothecin, camptothecin]: the “effect on cell cycle” value is recorded as “S phase delay” and the increase in apoptosis is 5-6 fold.
